Entries after “also recorded” stand apart in the source; their conditions may differ. Where a SMILES comes first, the peptide text is derived from it.
Legend:
[1] = molecular target: T1, [Ile931]β′-RNAP holoenzyme (Escherichia coli, UniProt P0A8T7, T931I); experiment: Transcription assays with MccJ25-resistant RNAP derivative; format: biochemical
T1 construct: hexahistidine (C); made in house; host or cells: E. coli strain 397c (rpoC ts397) transformed with a pRL663 derivative
Protocol: (§1) MccJ25 interferes with a process common to both abortive initiation and elongation—i.e., NTP uptake, phosphodiester-bond formation, or translocation.
RNAP holoenzyme was prepared from, strain XE54/pREII-NHα (thi pREII-NHα; Niu et al., (1996) Cell 87, 1123-1134) using metal-ion affinity chromatography and ion-exchange chromatography (Id.). (Ile931]β′-RNAP holoenzyme was prepared from strain 397c [rpoC^ts397 argG thi lac λcI857h80St68dlac^+); Christie et al., (1996) J. Bacteriol. 178, 6991-6993) transformed with a pRL663 derivative encoding [Ile931]β′-RNAP (constructed using site-directed mutagenesis (QuikChange Site-Directed Mutagenesis Kit; Stratagene, Inc).) using identical procedures. Yields typically were 6 mg. Purities typically were >95%.
Following 15 min at 37° C., 0.5 μl 1 mg/ml heparin, was added, and, following a further 2 min at 37° C., RNA synthesis was initiated by addition of 2 μl 5 mM ApA and 125 μM (or 250 jiM, 500 μM, and 1 mM) each of [α-^32P]UTP (0.6 Bq/fmol), ATP, CTP, GTP. […] Products were heated 10 min at 90° C., resolved by urea-PAGE (Sambrook and Russell (2001). Molecular Cloning: A Laboratory Manual (Cold Spring Harbor, N.Y., Cold Spring Harbor Laboratory)), and quantified using an x/y storage-phosphor scanner (Storm 860; Molecular Dynamics, Inc.). […]

RNAP = RNAP (Escherichia coli, UniProt P0A8T7); details: crude cell extracts; Delgado et al. (2001); cited from earlier work
RNAP holoenzyme [2] = molecular target: T2, RNAP holoenzyme (Escherichia coli, UniProt P0A8T7); experiment: Electrophoretic mobility shift assays (open-complex formation, lacUV5 promoter); format: biochemical; details: MccJ25 at 1, 10, or 100 μM
T2 construct: RNAP holoenzyme was prepared from, strain XE54/pREII-NHα; made in house; host or cells: E. coli strain XE54/pREII-NHα
Protocol: Following 15 min at 37° C., 0.5 μl 1 mg/ml heparin was added (to disrupt non-specific complexes (Cech and McClure (1980) Biochem. 19, 2440-2447)), and, following a further 2 min at 37° C., reaction mixtures were applied to 5% polyacrylamide slab gels (30:1 acrylamide/bisacrylamide; 6×9×0.1 cm) and electrophoresed in 90 mM Tris-borate (pH 8.0) and 0.2 mM EDTA (20 V/cm; 30 mm at 37° C.) and analyzed using an x/y fluorescence scanner (Storm 860; Molecular Dynamics, Inc.).

RNAP holoenzyme [3] = molecular target: T2, RNAP holoenzyme; experiment: Transcription assays (abortive initiation and elongation, lacUV5 promoter); format: biochemical
Protocol: as §1
Following 15 min at 37° C., 0.5 μl 1 mg/ml heparin, was added, and, following a further 2 min at 37° C., RNA synthesis was initiated by addition of 2 μl 5 mM ApA and 125 μM (or 250 jiM, 500 μM, and 1 mM) each of [α-^32P]UTP (0.6 Bq/fmol), ATP, CTP, GTP. Following 5 min at 37° C., reactions were terminated by addition of 10 μl 80% formamide, 10 mM EDTA, 0.04% bromophenol blue, and 0.04% xylene cyanol. Products were heated 10 min at 90° C., resolved by urea-PAGE (Sambrook and Russell (2001). Molecular Cloning: A Laboratory Manual (Cold Spring Harbor, N.Y., Cold Spring Harbor Laboratory)), and quantified using an x/y storage-phosphor scanner (Storm 860; Molecular Dynamics, Inc.). Data were fit to full-competitive, partial-competitive, full-noncompetitive, partial-noncompetitive, full-uncompetitive, partial-uncompetitive, full-mixed, and partial-mixed models of inhibition using the Fit-To-Model feature of the SigmaPlot Enzyme Kinetics Module (SPSS, Inc.).

RNAP holoenzyme [4] = molecular target: T2, RNAP holoenzyme; experiment: Fluorescence-detected abortive initiation assays; format: biochemical; details: iterative tri- and tetranucleotide synthesis
Protocol: Following 15 min at 37° C. 0.5 μl mg/ml heparin was added, and, following a further 2 min at 37° C., 1 μl of 0.25-5 mM (y-AmNS)UTP (Molecular Probes, Inc.) was added, and reaction mixtures were transferred to sub-micro fluorometer cuvettes (Starna Cells, Inc.). Following 2 min at 37° C., RNA synthesis was initiated by addition of 2.5 μl 10 mM ApA, and fluorescence emission intensity was monitored 5 min at 37° C. [excitation wavelength=360 nm and emission wavelength=500 nm; excitation and emission slit widths=4 nm; QuantaMaster QM1 spectrofluororaeter (PTI, Inc).]. The quantity of UMP incorporated into RINA was determined from the quantity of (γ−AmNS)UTP consumed, which, in turn, was calculated as follows (Schlageck et al. 1979): (γ−AmNS)UTPconsumed=[(γ−AmNS)UTP0](Ft−F0)/(12.4×F0) where (γ−AmNS)UTP0 is the quantity of (γ−AmNS)UTP at time 0, F0 is the fluorescence emission intensity at time 0, and Ft is the fluorescence emission intensity at time t. Data were fit to full-competitive, partial-competitive, full-noncompetitive, partial-noncompetitive, full-uncompetitive, partial-uncompetitive, full-mixed, and partial-mixed models of inhibition as in the preceding section.

RNAP secondary channel = RNAP secondary channel (Escherichia coli, UniProt P0A8T7); experiment: Fluorescence-resonance-energy-transfer experiments with a fluorochrome-labelled MccJ25 derivative; format: binding; details: preliminary results
Text: The results of Yuzenkova et al., (2002) J. Biol. Chem. 277, 50867-50875, although limited, also indicate that inhibition involves a multi-residue determinant within the RNAP secondary channel (five sites for substitutions conferring MccJ25-resistance). […] The RNAP secondary channel is a 25 Å long, ˜10-15 Å wide, fully enclosed tunnel through which NTPs must pass to access the RNAP active-center and NTP binding site (Zhang et al., (1999) Cell 98, 811-824; Cramer et al., (2001) Science 292, 1863-1876; and Ebright (2000) J. Mol. Biol. 304, 687-689).

[5] = tested on: Gram-negative bacterial species, including E. coli; details: Salomon and Farias (1992); cited from earlier work
[6] = MccJ25 at 1, 10, or 100 μM, 5 min at 37° C.

CC[C@H](C)[C@H](NC(=O)CNC(=O)[C@@H](NC(=O)[C@H](Cc1ccccc1)NC(=O)[C@H](Cc1ccc(O)cc1)NC(=O)[C@@H]1CCC(=O)NCC(=O)NCC(=O)N[C@@H](C)C(=O)NCC(=O)N[C@@H](Cc2c[nH]cn2)C(=O)N[C@@H](C(C)C)C(=O)N2CCC[C@H]2C(=O)N1)C(C)C)C(=O)NCC(=O)N[C@H](C(=O)N1CCC[C@H]1C(=O)N[C@H](C(=O)N[C@@H](CO)C(=O)N[C@@H](Cc1ccccc1)C(=O)N[C@@H](Cc1ccc(O)cc1)C(=O)NCC(=O)O)[C@@H](C)CC)[C@@H](C)O [MccJ25] (HELM PEPTIDE1{G.G.A.G.H.V.P.E.Y.F.V.G.I.G.T.P.I.S.F.Y.G}$PEPTIDE1,PEPTIDE1,1:R1-8:R3$$$V2.0)
inhibition of transcription upon substitution of residue 931 of the RNAP β′ subunit (Thr931→Ile) [1]: overcome completely | inhibition of RNAP-dependent transcription (RNAP): inhibits | effect on formation of open complex (RNAP holoenzyme [2]): no effect; also recorded: does not inhibit | inhibition of formation of abortive products (7 nt and 8 nt RNA species) (RNAP holoenzyme [3]; [6]): inhibits | inhibition of formation of the full-length product (26 nt RNA species) (RNAP holoenzyme [3]; [6]): inhibits | NTP-concentration dependence of inhibition (RNAP holoenzyme [3]; NTP 12.5, 25, 50 and 100 μM): NTP-concentration-dependent | mode of inhibition (RNAP holoenzyme [3]; with respect to NTPs, 7-mer and 8-mer abortive products): partial competitive | mode of inhibition (RNAP holoenzyme [4]): partial-competitive | binding site on RNAP (RNAP secondary channel): binds within the RNAP secondary channel | bacteriocidal activity [5]: exhibits bacteriocidal activity
